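1) Cells in 96-well plates. 2) Compound, 48 h, 5 concentrations. 3) Linear interpolation between surrounding doses. 4) Unreached endpoint = highest concentration. GI50 = concentration required for 50% inhibition of growth.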 Active and inactive are the calls of the source. No stated cut-off is given here; in the data, active = GI50 up to about 1.1 µM and inactive = higher.
How the values were obtained:
Test in all cases: growth of human tumour cells (NCI), 48 h
ACHN = test system: ACHN
UO-31 = test system: UO-31
KM12 = test system: KM12
HCT-116 = test system: HCT-116
PC-3 = test system: PC-3
HCT-15 = test system: HCT-15
SF-295 = test system: SF-295
OVCAR-8 = test system: OVCAR-8
SF-539 = test system: SF-539
DU-145 = test system: DU-145
U-251 = test system: U-251
UACC-257 = test system: UACC-257
UACC-62 = test system: UACC-62
HT-29 = test system: HT-29
SK-MEL-5 = test system: SK-MEL-5
NCI-H226 = test system: NCI-H226
EKVX = test system: EKVX
SN12C = test system: SN12C
NCI-H460 = test system: NCI-H460

Measured: GI50

Nc1nc(Nc2ccccc2)c2[nH]cnc2n1
52 µM: HCT-15
inactive: ACHN 41.9 µM | UO-31 34.8 µM | KM12 35.6 µM | HCT-116 69 µM | PC-3 > 100 µM | SF-295 > 100 µM | OVCAR-8 > 100 µM | SF-539 > 100 µM | DU-145 77.3 µM | U-251 > 100 µM | UACC-257 > 100 µM | UACC-62 33.3 µM | HT-29 63.7 µM | SK-MEL-5 86.5 µM | NCI-H226 40.6 µM | EKVX > 100 µM | SN12C > 100 µM

O=C(O)CNc1ncc2c(n1)-c1ccccc1OC2
> 100 µM: HCT-15
inactive: ACHN > 100 µM | UO-31 > 100 µM | NCI-H460 > 100 µM | KM12 > 100 µM | HCT-116 > 100 µM | PC-3 > 100 µM | SF-295 > 100 µM | OVCAR-8 > 100 µM | SF-539 > 100 µM | DU-145 > 100 µM | U-251 > 100 µM | UACC-257 > 100 µM | UACC-62 > 100 µM | HT-29 > 100 µM | SK-MEL-5 > 100 µM | EKVX > 100 µM | SN12C > 100 µM

CN[C@@H](Cc1cccc2ccccc12)C(=O)N[C@@H](CC(C)C)B(O)O
active: ACHN < 0.01 µM | UO-31 < 0.01 µM | NCI-H460 < 0.0113 µM | KM12 < 0.01 µM | HCT-116 < 0.01 µM | PC-3 < 0.0119 µM | SF-295 < 0.01 µM | OVCAR-8 < 0.014 µM | SF-539 < 0.01 µM | DU-145 < 0.0109 µM | U-251 < 0.0126 µM | UACC-62 < 0.01 µM | HT-29 < 0.01 µM | SK-MEL-5 < 0.01 µM | NCI-H226 0.00211 µM | SN12C < 0.01 µM
< 0.01 µM: HCT-15

CC1=NN2C=Nc3c(c(-c4ccc(Cl)cc4)cn3-c3ccc(C)cc3)C2N1 (stereo not drawn)
> 100 µM: HCT-15
inactive: ACHN > 100 µM | UO-31 > 100 µM | NCI-H460 56.6 µM | HCT-116 46.2 µM | PC-3 32.9 µM | SF-295 39.3 µM | OVCAR-8 29.9 µM | SF-539 87.1 µM | DU-145 > 100 µM | U-251 76.2 µM | UACC-257 > 100 µM | UACC-62 61 µM | HT-29 64.4 µM | SK-MEL-5 87.9 µM | NCI-H226 > 100 µM | EKVX > 100 µM | SN12C > 100 µM

Cc1cc2c(cc1Cl)SC(NNCCO)=NS2(=O)=O
inactive: ACHN > 100 µM | UO-31 > 100 µM | NCI-H460 > 100 µM | KM12 > 100 µM | HCT-116 > 100 µM | PC-3 86.3 µM | SF-295 > 100 µM | OVCAR-8 > 100 µM | SF-539 > 100 µM | DU-145 > 100 µM | U-251 > 100 µM | UACC-257 > 100 µM | UACC-62 97.7 µM | HT-29 > 100 µM | SK-MEL-5 73.1 µM | NCI-H226 > 100 µM | EKVX > 100 µM
> 100 µM: HCT-15

O=C1C=Cc2c1csc2Br
28.6 µM: HCT-15
inactive: ACHN 30.7 µM | UO-31 24.2 µM | NCI-H460 > 100 µM | KM12 50.8 µM | HCT-116 43.3 µM | PC-3 65.3 µM | SF-295 > 100 µM | OVCAR-8 38.2 µM | DU-145 > 100 µM | U-251 51.2 µM | UACC-257 67.3 µM | UACC-62 35.3 µM | HT-29 96.8 µM | SK-MEL-5 69.3 µM | EKVX 87.5 µM | SN12C > 100 µM

CC1(C)O[C@@H]([C@@H](O)[C@H](O)C2SCCCS2)[C@@H](CO)O1
inactive: ACHN > 100 µM | UO-31 > 100 µM | NCI-H460 > 100 µM | KM12 > 100 µM | HCT-116 > 100 µM | PC-3 > 100 µM | SF-295 > 100 µM | OVCAR-8 > 100 µM | DU-145 > 100 µM | U-251 > 100 µM | UACC-257 > 100 µM | UACC-62 > 100 µM | HT-29 > 100 µM | SK-MEL-5 > 100 µM | NCI-H226 > 100 µM | EKVX > 100 µM | SN12C > 100 µM
> 100 µM: HCT-15

COc1ccc2[nH]c3cc4c(=O)c5cc(OC)ccc5[nH]c4cc3c(=O)c2c1
inactive: ACHN > 100 µM | UO-31 97.5 µM | NCI-H460 > 100 µM | KM12 > 100 µM | HCT-116 > 100 µM | PC-3 > 100 µM | SF-295 > 100 µM | OVCAR-8 > 100 µM | DU-145 > 100 µM | U-251 > 100 µM | UACC-257 > 100 µM | UACC-62 > 100 µM | HT-29 > 100 µM | SK-MEL-5 > 100 µM | NCI-H226 > 100 µM | EKVX > 100 µM | SN12C > 100 µM
> 100 µM: HCT-15

O=C1CC2CCC(C1)[S+]2[O-] (stereo not drawn)
> 100 µM: HCT-15
inactive: UO-31 > 100 µM | NCI-H460 > 100 µM | KM12 > 100 µM | HCT-116 > 100 µM | PC-3 > 100 µM | SF-295 61.4 µM | OVCAR-8 > 100 µM | SF-539 > 100 µM | DU-145 > 100 µM | U-251 > 100 µM | UACC-257 > 100 µM | UACC-62 > 100 µM | HT-29 > 100 µM | SK-MEL-5 > 100 µM | NCI-H226 > 100 µM | EKVX > 100 µM | SN12C > 100 µM

CC(c1ccccc1)n1cncc1C(=O)NN1CCN(C)CC1 (stereo not drawn)
inactive: ACHN > 10 µM | NCI-H460 > 10 µM | KM12 > 10 µM | HCT-116 > 10 µM | PC-3 > 10 µM | SF-295 > 10 µM | OVCAR-8 > 10 µM | SF-539 > 10 µM | DU-145 > 10 µM | U-251 > 10 µM | UACC-257 > 10 µM | UACC-62 > 10 µM | HT-29 > 10 µM | SK-MEL-5 > 10 µM | NCI-H226 3.81 µM | EKVX > 10 µM | SN12C > 10 µM
> 10 µM: HCT-15

CO[C@H]1C[C@@H]2CC[C@@H](C)[C@@](O)(O2)C(=O)C(=O)N2CCCC[C@H]2C(=O)O[C@H]([C@H](C)C[C@@H]2CC[C@@H](OC(=O)C(C)(CO)CO)[C@H](OC)C2)CC(=O)[C@H](C)/C=C(\C)[C@@H](O)[C@@H](OC)C(=O)[C@H](C)C[C@H](C)/C=C/C=C/C=C/1C [TEMSIROLIMUS]
active: ACHN 0.00723 µM | UO-31 0.00496 µM | NCI-H460 0.0678 µM | KM12 0.0264 µM | PC-3 0.00123 µM | SF-295 0.000557 µM | OVCAR-8 0.00388 µM | SF-539 0.00873 µM | DU-145 0.0975 µM | UACC-62 0.0141 µM | HT-29 0.0376 µM | SK-MEL-5 0.0792 µM | NCI-H226 0.0116 µM | EKVX 0.0185 µM | SN12C 0.00607 µM
inactive: HCT-116 3.26 µM | UACC-257 1.99 µM
0.0849 µM: HCT-15

OC(Cc1cccc2ccccc12)CN1CCC(c2ccccc2)CC1 (stereo not drawn)
inactive: ACHN 17.1 µM | NCI-H460 13.9 µM | KM12 14.8 µM | HCT-116 13.2 µM | PC-3 14.5 µM | SF-295 13.2 µM | OVCAR-8 16.8 µM | SF-539 17.3 µM | DU-145 14.9 µM | U-251 13.4 µM | UACC-257 3.72 µM | UACC-62 15.3 µM | HT-29 11.2 µM | SK-MEL-5 12.1 µM | EKVX 14 µM | SN12C 16.5 µM
14.5 µM: HCT-15
active: UO-31 0.0241 µM

Oc1ccc2cc(Br)ccc2c1-c1c(O)ccc2ccc(Br)cc12
14.9 µM: HCT-15
inactive: ACHN 14.8 µM | UO-31 15.3 µM | NCI-H460 4.12 µM | KM12 6.84 µM | HCT-116 14.4 µM | PC-3 12.6 µM | SF-295 15.4 µM | OVCAR-8 14.4 µM | SF-539 18.5 µM | DU-145 15.8 µM | U-251 14.1 µM | UACC-257 18.5 µM | UACC-62 17.3 µM | HT-29 3.07 µM | SK-MEL-5 23 µM | NCI-H226 13.2 µM | SN12C 12 µM

Nc1ccc(Oc2ccc(C34CC5CC6C3CC3CC4C(C5)C6(c4ccc(Oc5ccc(N)cc5)cc4)C3)cc2)cc1
active: UACC-257 0.329 µM | SK-MEL-5 0.561 µM
inactive: ACHN 3.17 µM | UO-31 8.36 µM | NCI-H460 21.4 µM | KM12 19.5 µM | HCT-116 8.41 µM | PC-3 8.26 µM | SF-295 23.8 µM | OVCAR-8 31.9 µM | DU-145 8.93 µM | U-251 2.9 µM | UACC-62 2.74 µM | HT-29 10.2 µM | NCI-H226 22.8 µM | EKVX 11.5 µM | SN12C 25.1 µM
21.8 µM: HCT-15

C/C(=C\COP(=O)(O)OP(=O)(O)O)CCCCCCOCc1ccccc1
> 100 µM: HCT-15
inactive: ACHN > 100 µM | UO-31 > 100 µM | NCI-H460 > 100 µM | KM12 > 100 µM | HCT-116 > 100 µM | SF-295 > 100 µM | OVCAR-8 > 100 µM | SF-539 > 100 µM | DU-145 > 100 µM | U-251 > 100 µM | UACC-257 > 100 µM | UACC-62 > 100 µM | HT-29 > 100 µM | SK-MEL-5 > 100 µM | NCI-H226 > 100 µM | EKVX > 100 µM | SN12C > 100 µM
